{"source": "patent US20150297605A1", "about": "“METHODS FOR TREATING CANCER USING TOR KINASE INHIBITOR COMBINATION THERAPY” (Signal Pharmaceuticals, LLC, priority 2014, published 2015)", "assay_type_in_all_cases": "cell-based", "key": {"[1]": {"test_system": "BT-20 breast cancer cell line", "test": "Anti-proliferation assay, synergy score, BT-20", "settings": "in combination with Compound 1, 72 h, mean self cross score + 2σ 3.23", "method": "(§1) Anti-Proliferation Assay. Cells were thawed from a liquid nitrogen preserved state. Once cells expanded and divided at their expected doubling times, screening began.\n(§2) Cells were equilibrated in assay plates via centrifugation and placed in incubators attached to the Dosing Modules at 37° C. for twenty-four hours before treatment. […] These T zero (T0) plates were read using ultra-sensitive luminescence on Envision Plate Readers. Treated assay plates were incubated with compound (single compound or combination) for seventy-two hours. After seventy-two hours, platesweare developed for endpoint analysis using ATPLite. […] The calculation for synergy score is provided below.\n(§3) Growth Inhibition (GI) was used as a measure of cell viability. The cell viability of vehicle was measured at the time of dosing (T0) and after seventy-two hours (T72). […] A GI 200% represents complete death of all cells in the culture well. Compounds reaching an activity plateau of GI 200% are considered cytotoxic. GI is calculated by applying the following test and equation: […]\n(§4) where T is the signal measure for a test article, V is the vehicle-treated control measure, and V0 is the vehicle control measure at time zero. This formula is derived from the Growth Inhibition calculation used in the National Cancer Institute's NCI-60 high throughput screen.\n(§5) Synergy Score Analysis. Synergy scores were determined using the Chalice Software (Zalicus Inc., Cambridge Mass.). […] The Synergy Score is calculated as: […]\n(§6) The fractional inhibition for each component agent and combination point in the matrix was calculated relative to the median of all vehicle-treated control wells. […]\n(§7) In order to objectively establish hit criteria for the combination screen analysis, twenty compounds were selected to be self-crossed across the seventeen cell line panel as a means to empirically determine a baseline additive, non-synergistic response. The identity of the twenty self-cross compounds was determined by selecting compounds with a variety of maximum response values and single agent dose response steepness."}, "[2]": {"test_system": "BT-474 breast cancer cell line", "test": "Anti-proliferation assay, synergy score, BT-474", "settings": "in combination with Compound 1, 72 h, mean self cross score + 2σ 3.37", "method": "as §1, §2, §3, §4, §5, §6, §7"}, "[3]": {"test_system": "BT-549 breast cancer cell line", "test": "Anti-proliferation assay, synergy score, BT-549", "settings": "in combination with Compound 1, 72 h, mean self cross score + 2σ 3.94", "method": "as §1, §2, §3, §4, §5, §6, §7"}, "[4]": {"test_system": "HCC-1187 breast cancer cell line", "test": "Anti-proliferation assay, synergy score, HCC-1187", "settings": "in combination with Compound 1, 72 h, mean self cross score + 2σ 4.80", "method": "as §1, §2, §3, §4, §5, §6, §7"}, "[5]": {"test_system": "HCC-1428 breast cancer cell line", "test": "Anti-proliferation assay, synergy score, HCC-1428", "settings": "in combination with Compound 1, 72 h, mean self cross score + 2σ 3.22", "method": "as §1, §2, §3, §4, §5, §6, §7"}, "[6]": {"test_system": "HCC-1500 breast cancer cell line", "test": "Anti-proliferation assay, synergy score, HCC-1500", "settings": "in combination with Compound 1, 72 h, mean self cross score + 2σ 4.17", "method": "as §1, §2, §3, §4, §5, §6, §7"}, "[7]": {"test_system": "HCC-1806 breast cancer cell line", "test": "Anti-proliferation assay, synergy score, HCC-1806", "settings": "in combination with Compound 1, 72 h, mean self cross score + 2σ 5.05", "method": "as §1, §2, §3, §4, §5, §6, §7"}, "[8]": {"test_system": "HCC-1937 breast cancer cell line", "test": "Anti-proliferation assay, synergy score, HCC-1937", "settings": "in combination with Compound 1, 72 h, mean self cross score + 2σ 2.89", "method": "as §1, §2, §3, §4, §5, §6, §7"}, "[9]": {"test_system": "MDA-MB-175-VII breast cancer cell line", "test": "Anti-proliferation assay, synergy score, MDA-MB-175-VII", "settings": "in combination with Compound 1, 72 h, mean self cross score + 2σ 2.82", "method": "as §1, §2, §3, §5, §6"}, "[10]": {"test_system": "MDA-MB-453 breast cancer cell line", "test": "Anti-proliferation assay, synergy score, MDA-MB-453", "settings": "in combination with Compound 1, 72 h, mean self cross score + 2σ 2.99", "method": "as §1, §2, §3, §4, §5, §6, §7"}, "[11]": {"test_system": "5637 (bladder cancer, romidepsin sensitive cell line)", "test": "Anti-proliferation assay (CellTiter-Glo), Bliss independence model, 5637", "settings": "combination treatment with Romidepsin, 5637 (S), 72 h, greater than 10% considered synergistic", "method": "(§8) Anti-Proliferation Assay. […] Cells were thawed from a liquid nitrogen preserved state. Once cells were expanded and divided at their expected doubling times, screening began. Cells were seeded in their respective growth media in 96-well tissue culture treated plates at 2000 cells/well and placed in incubators at 37° C. the night before treatment. […] These T zero (T0) plates were read using luminescence on Spectramax Plate Readers. Treated assay plates were incubated with Compound for seventy-two hours. After seventy-two hours, plates were developed for endpoint analysis using CellTiter-Glo. The calculation for synergy score is provided below.\n(§9) Growth Inhibition (GI) was used as a measure of cell viability. The cell viability of vehicle was measured at the time of dosing (T0) and after seventy-two hours (T72). A GI reading of 0% represents no growth inhibition—cells treated with compound and T72 vehicle signals are matched. A GI 100% represents complete growth inhibition—cells treated by compound and T0 vehicle signals are matched. […] A GI 200% represents complete death of all cells in the culture well. […] GI is calculated by applying the following test and equation: […]\n(§10) We next compared the expected compound effect to the observed compound effect, and calculated the differences between the observed and the expected cell viability, expressed as % of control. […]"}, "[12]": {"test_system": "SKOV3 (ovarian cancer, romidepsin resistant cell line)", "test": "Anti-proliferation assay (CellTiter-Glo), Bliss independence model, SKOV3", "settings": "combination treatment with Romidepsin, SKOV3 (R), 72 h, greater than 10% considered synergistic", "method": "as §8, §9, §10"}, "[13]": {"test_system": "5637 and SKOV3 cancer cell lines", "test": "Anti-proliferation assay (CellTiter-Glo), Bliss independence model, overall conclusion", "settings": "combination with romidepsin", "method": "as §8, §9, §10"}}, "data": [{"smiles": "O=C(/C=C/c1cccc(S(=O)(=O)Nc2ccccc2)c1)NO", "note": "[Belinostat]", "values": [{"measurement": "Synergy Score", "setting": "[1]", "value": 9.26}, {"measurement": "Synergy Score", "setting": "[2]", "value": 6.88}, {"measurement": "Synergy Score", "setting": "[3]", "value": 9.09}, {"measurement": "Synergy Score", "setting": "[4]", "value": 4.60}, {"measurement": "Synergy Score", "setting": "[5]", "value": 7.23}, {"measurement": "Synergy Score", "setting": "[6]", "value": 4.58}, {"measurement": "Synergy Score", "setting": "[7]", "value": 11.40}, {"measurement": "Synergy Score", "setting": "[8]", "value": 14.50}, {"measurement": "Synergy Score", "setting": "[9]", "value": 3.21}, {"measurement": "Synergy Score", "setting": "[10]", "value": 14.80}]}, {"smiles": "CCN1C(=O)CNc2ncc(-c3ccc(-c4nc[nH]n4)nc3C)nc21", "note": "[Compound 1, 1-ethyl-7-(2-methyl-6-(1H-1,2,4-triazol-3-yl)pyridin-3-yl)-3,4-dihydropyrazino[2,3-b]pyrazin-2(1H)-one]", "values": [{"measurement": "differences between observed and expected cell viability (% of control)", "setting": "[11]", "value": 16, "unit": "%"}, {"measurement": "differences between observed and expected cell viability (% of control)", "setting": "[12]", "value": 23, "unit": "%"}]}, {"smiles": "CO[C@H]1CC[C@H](N2C(=O)CNc3ncc(-c4ccc(C(C)(C)O)nc4)nc32)CC1", "note": "[Compound 2, 7-(6-(2-hydroxypropan-2-yl)pyridin-3-yl)-1-((1r,4r)-4-methoxycyclohexyl)-3,4-dihydropyrazino-[2,3-b]pyrazin-2(1H)-one]", "values": [{"measurement": "differences between observed and expected cell viability (% of control)", "setting": "[11]", "value": 19, "unit": "%"}, {"measurement": "differences between observed and expected cell viability (% of control)", "setting": "[12]", "value": 27, "unit": "%"}, {"measurement": "combination effect (conclusion in words)", "setting": "[13]", "value": "synergism was observed"}]}, {"smiles": "Nc1ccccc1NC(=O)c1ccc(CNC(=O)OCc2cccnc2)cc1", "note": "[MS-275]", "values": [{"measurement": "Synergy Score", "setting": "[1]", "value": 5.84}, {"measurement": "Synergy Score", "setting": "[2]", "value": 7.79}, {"measurement": "Synergy Score", "setting": "[3]", "value": 11.80}, {"measurement": "Synergy Score", "setting": "[4]", "value": 7.64}, {"measurement": "Synergy Score", "setting": "[5]", "value": 1.65}, {"measurement": "Synergy Score", "setting": "[6]", "value": 2.18}, {"measurement": "Synergy Score", "setting": "[7]", "value": 10.00}, {"measurement": "Synergy Score", "setting": "[8]", "value": 9.75}, {"measurement": "Synergy Score", "setting": "[9]", "value": 6.71}, {"measurement": "Synergy Score", "setting": "[10]", "value": 14.60}]}, {"smiles": "C/C=C1\\NC(=O)[C@H]2CSSCC/C=C/[C@H](CC(=O)N[C@H](C(C)C)C(=O)N2)OC(=O)[C@H](C(C)C)NC1=O", "note": "[Romidepsin, (1S,4S,7Z,10S,16E,21R)-7-ethylidene-4,21-bis(1-methylethyl)-2-oxa-12,13-dithia-5,8,20,23-tetrazabicyclo[8.7.6]tricos-16-ene-3,6,9,19,22-pentone]", "values": [{"measurement": "Synergy Score", "setting": "[1]", "value": 8.00}, {"measurement": "Synergy Score", "setting": "[2]", "value": 6.00}, {"measurement": "Synergy Score", "setting": "[3]", "value": 12.00}, {"measurement": "Synergy Score", "setting": "[4]", "value": 6.10}, {"measurement": "Synergy Score", "setting": "[5]", "value": 4.80}, {"measurement": "Synergy Score", "setting": "[6]", "value": 4.80}, {"measurement": "Synergy Score", "setting": "[7]", "value": 8.39}, {"measurement": "Synergy Score", "setting": "[8]", "value": 12.50}, {"measurement": "Synergy Score", "setting": "[10]", "value": 13.80}]}]}
